Reference: patent US20260028352A1, “MACROCYCLIC IMIDAZO [1,2-B] PYRIDAZINE DERIVATIVE, PREPARATION METHOD THEREFOR, AND USE THEREOF” (SUZHOU LANGRUI BIOPHARMACEUTICAL CO., LTD., priority 2022, published 2026)
pIC50: −log10 of the molar value. Where two headings read alike, the source gives them in different places.

Legend:
TRKA^F589L kinase = TRKA^F589L kinase (Homo sapiens (Human), UniProt P04629, F589L); test: Inhibitory activity against TRKA(F589L) kinase (Caliper mobility shift); assay type: biochemical; details: in vitro kinase assay
Procedure, shortened: (§1)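 Kinase preincubated 10 min at room temperature with compound (10-point 3-fold series from 1000 nM), then reaction started with ATP and Kinase Substrate 22. Substrate conversion read by Caliper mobility shift; IC50 from variable-slope log(inhibitor)–response fit of % inhibition versus no-enzyme and no-compound controls.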

[1] = system: Ba/F3-TPM3-NTRK1-G595R cells; test: Growth inhibition of Ba/F3-TPM3-NTRK1-G595R cells (Cell Titer-Glo); assay type: cell-based; details: 72 hours, CTG; read-out: inhibitory activity IC50 Ba/F3-TPM3-NTRK1-G595R
Procedure, shortened: (§2)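 Ba/F3 cells were exposed for 72 hours to serially DMSO-diluted compound at a top final concentration of 10 μM. Viability was read by Cell Titer-Glo luminescence after the plate equilibrated 30 min at room temperature and was then shaken 1 hour in the dark at room temperature.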

[2] = ether bond, 2.0 h
TRKA^WT kinase = TRKA^WT kinase (Homo sapiens (Human), UniProt P04629); test: Inhibitory activity against TRKA WT kinase (Caliper mobility shift); assay type: biochemical; details: in vitro kinase assay
Procedure, shortened: as §1

[3] = system: Ba/F3-TPM3-NTRK1-G667C cells; test: Growth inhibition of Ba/F3-TPM3-NTRK1-G667C cells (Cell Titer-Glo); assay type: cell-based; details: 72 hours, CTG; read-out: inhibitory activity IC50 Ba/F3-TPM3-NTRK1-G667C
Procedure, shortened: as §2

[4] = system: Ba/F3-TPM3-NTRK1-WT cells; test: Growth inhibition of Ba/F3-TPM3-NTRK1-WT cells (Cell Titer-Glo); assay type: cell-based; details: 72 hours, CTG; read-out: inhibitory activity IC50 Ba/F3-TPM3-NTRK1-WT
Procedure, shortened: as §2

TRKA^WT kinase, sequence (P04629 33-796): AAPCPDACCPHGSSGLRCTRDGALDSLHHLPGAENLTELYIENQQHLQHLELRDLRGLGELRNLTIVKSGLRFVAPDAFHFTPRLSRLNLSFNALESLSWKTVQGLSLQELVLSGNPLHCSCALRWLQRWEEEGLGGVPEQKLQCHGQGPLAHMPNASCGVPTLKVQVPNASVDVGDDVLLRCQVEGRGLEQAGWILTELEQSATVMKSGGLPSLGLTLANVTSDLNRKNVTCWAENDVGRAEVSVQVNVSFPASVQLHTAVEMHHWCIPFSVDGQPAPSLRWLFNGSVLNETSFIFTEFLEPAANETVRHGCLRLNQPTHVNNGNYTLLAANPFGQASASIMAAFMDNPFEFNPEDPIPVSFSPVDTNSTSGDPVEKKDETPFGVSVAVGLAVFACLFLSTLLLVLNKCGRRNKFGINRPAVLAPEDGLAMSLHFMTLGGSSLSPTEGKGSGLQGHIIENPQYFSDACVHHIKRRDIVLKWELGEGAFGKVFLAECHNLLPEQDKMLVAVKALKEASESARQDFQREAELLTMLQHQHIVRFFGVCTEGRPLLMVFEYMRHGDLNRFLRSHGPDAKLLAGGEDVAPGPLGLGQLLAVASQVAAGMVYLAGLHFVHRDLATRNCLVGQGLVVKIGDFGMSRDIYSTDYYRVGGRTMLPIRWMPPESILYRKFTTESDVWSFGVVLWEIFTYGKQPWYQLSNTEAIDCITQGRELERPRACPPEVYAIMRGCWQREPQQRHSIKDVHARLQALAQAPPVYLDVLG
TRKA^F589L kinase, sequence (P04629 33-796 F589L): as the sequence (P04629 33-796) above, with F557L counted along it

Structure (SMILES) | pIC50 (TRKA^F589L kinase) | pIC50 [1] | ring closure, isolated yield ([2]; from OCc1ccnc(-c2cnc3ccc(NCc4cc(F)ccc4O)nn23)c1, 13-membered ring, SOCl2, K2CO3, DCM/DMF, 20.3 mM, 90.0 °C, 2 steps) [%] | pIC50 (TRKA^WT kinase) | pIC50 [3] | pIC50 [4] | ring closure, isolated yield ([2]; from OCc1ccnc(-c2cnc3ccc(NCc4ccccc4O)nn23)c1, 13-membered ring, SOCl2, K2CO3, DCM/DMF, 22.8 mM, 90.0 °C, 2 steps) [%] | ring closure, isolated yield ([2]; from CC(Nc1ccc2ncc(-c3cncc(CO)c3)n2n1)c1cc(F)ccc1O, 13-membered ring, SOCl2, K2CO3, DCM/DMF, 15.7 mM, 90.0 °C, 2 steps) [%] | ring closure, isolated yield ([2]; from OCCc1ccnc(-c2cnc3ccc(NCc4ccccc4O)nn23)c1, 14-membered ring, PPh3/DIAD, THF, 16.6 mM, 60.0 °C) [%]
Fc1ccc2c(c1)CNc1ccc3ncc(n3n1)-c1cc(ccn1)CO2 [Example I-5, (E)-5^4-fluoro-4-oxa-7-aza-1(3,6)-imidazo[1,2-b]pyridazina-2(2,4)-pyridina-5(1,2)-benzenacycloheptaphane] | > 8.30 | 7.04 | 11.6 | 8.87 | 7.03 | 8.10 | – | – | –
c1ccc2c(c1)CNc1ccc3ncc(n3n1)-c1cc(ccn1)CO2 [Example I-6, (E)-4-oxa-7-aza-1(3,6)-imidazo[1,2-b]pyridazina-2(2,4)-pyridina-5(1,2)-benzenacycloheptaphane] | 8.21 | 6.28 | – | 8.56 | 6.28 | 7.74 | 13.6 | – | –
CC1Nc2ccc3ncc(n3n2)-c2cncc(c2)COc2ccc(F)cc21 (stereo not drawn) [Example I-7, (E)-5^4-fluoro-6-methyl-4-oxa-7-aza-1(3,6)-imidazo[1,2-b]pyridazine-2(3,5)-pyridina-5(1,2)-benzenacycloheptaphane] | > 8.30 | 6.70 | – | > 8.52 | 6.66 | 8.55 | – | 22.6 | –
c1ccc2c(c1)CNc1ccc3ncc(n3n1)-c1cc(ccn1)CCO2 [Example I-8, (E)-6-oxa-3-aza-2(3,6)-imidazo[1,2-b]pyridazina-1(2,4)-pyridina-5(1,2)-benzenacyclooctaphane] | > 8.30 | 6.25 | – | 8.61 | 6.25 | 8.47 | – | – | 34
